Measured values taken from patent US6849596B1, “Regulatory/unfolding peptides of ezrin” (priority 1999, dated 2005).

Columns and labels:
[1] = test system: HLA Class I on human White Blood Cells; experiment: Expression of MHC (HLA) Class I on human White Blood Cells; assay type: cell-based; conditions: 0.003 micrograms per ml
Description: A cell specific effect of this activation was an increase in the population of monocytes expressing MHC Class I and a decrease in the population of CD8 lymphocytes expressing MHC Class I.

[2] = test system: transplanted cervical cancer CUC-5; experiment: Transplanted mouse cervical cancer model CUC-5; assay type: in vivo, CBA mice; conditions: for Percent decrease in tumour volume relative to control / Days of life expectancy: CUC-5; for Days of life expectancy: control 47-76
Description: Anticancer Activity of Hepreceptor Peptides on the Growth of Transplanted Sarcoma of the Uterus SM-322 and on Cancer of the Uterine Cervix CUS-5 Performed in CBA Mice Using Rupe312 and Rupe414 as Examples
Transplanted mouse cervical cancer model CUC-5 (epithelial tumour)
Primary tumours were induced in female mice using methylcholantrene. A few primary turnouts were then auto-transplanted into the uterine cervix. The life expectancy of mice with transplanted tumours was 43 days.
CBA female mice weighed 21.4=/−1.2 g. and were 2-3 months old. The tumours were introduced as a 0.5 ml of tumour suspension (1 g tumour per 10 ml of Igla medium) and ten mice used in each treatment group.
Lyophylised peptide were dissolved in sterile physiological saline immediately before use in three concentrations. 0.5 ml of solution was injected twice weekly into the peritoneum of the mice for the duration of the experiment. Three different concentrations of peptide were used leading to three final doses per injection per mouse of 10, 1.0 and 0.1 micrograms.
The average percent decrease of tumour volume relative to the control group was recorded at three time points. The longevity of the mice in the treatment groups and control groups was compared and the histology of the tumours between control and treatment groups was compared.

[3] = test system: antibody forming cells against sheep erythocytes (SRBC); experiment: Antibody forming cells against sheep erythocytes (SRBC) in mice, plaque count; assay type: in vivo; conditions: four days after SRBC, thirty mice per data point
Experimental: Activity of Hepreceptor Peptides Enhancing the Antibody-Dependent Cytotoxic Response in […] to Sheep Red Blood Cells (SRBC) in Mice
The influence of Hepreceptor peptides on the activation of antibody forming cells against sheep erythocytes (SRBC) in Mice (CBA-C57B1 Fi hybrids. 2 months old, weight 18-22 grams) was determined. Mice were first injected intraperitoneally using either 0.5 ml sterile saline as a control or Hepreceptor peptides in the same volume of saline. 30 minutes after the injection of Hepreceptor peptides, a cell suspension containing 5 million SRBC was administered intraperitoneally to each mouse. Four days after the immunisation, the mice were killed by cervical dislocation and the spleens were obtained aseptically. Each spleen was homogenised in 2 ml of Medium 199, then 100 microliters of this suspension was put into 1 ml of prepared agarose in Medium 199 (stored in water bath at 48° C.), SRBC suspension was added, resulting in a final concentration of 1% agarose. The Im1 of agarose-cell mixture was agitated then transferred to petri dish to set. When the agarose became solid, the petri dish was incubated for 1 hour at 37° C. then 0.5 ml of 1-in-20 diluted guinea pig serum in Medium 199 was added on top of agarose gel as a source of complement. The incubation was continued for another 1 hour. The dishes were then visualised using an 8×binocular microscope and the number of plaques counted (each plaque equivalent to one antibody secreting mouse spleen cell). The results were expressed both as the number of antibody secreting cells per one million nucleated spleen cells and the number of antibody secreting cells per whole spleen.
Averaged data (from thirty mice per data point) of the number of antibody forming cells per one million nucleated spleen cells. The data was re-based relative to 100 for each control group.

## KKRRETVERE (Hepreceptor peptide) [Rupe312]
[1]; 24 hours
  relative activity in lowering intensity of HLA expression on WBC: more active than Rupe 414
[1]; B and NK cells, 24 hours
  Density of cell surface expression of HLA Class I, rebased to 100 for control: 73
  Percentage of cell population expressing HLA Class I, rebased to 100 for control: 105
[1]; CD4 lymphocytes, 24 hours
  Density of cell surface expression of HLA Class I, rebased to 100 for control: 70
  Percentage of cell population expressing HLA Class I, rebased to 100 for control: 104
[1]; CD8 lymphocytes, 24 hours
  Density of cell surface expression of HLA Class I, rebased to 100 for control: 72
  Percentage of cell population expressing HLA Class I, rebased to 100 for control: 85
[1]; Granulocytes, 24 hours
  Density of cell surface expression of HLA Class I, rebased to 100 for control: 81
  Percentage of cell population expressing HLA Class I, rebased to 100 for control: 98
[1]; Monocytes/Macrophages, 24 hours
  Percentage of cell population expressing HLA Class I, rebased to 100 for control: 119
[1]; Monocytes/Macrophages, 24 hours at 37° C.
  Density of cell surface expression of HLA Class I, rebased to 100 for control: 71
[2]; 0.1 Microg/mouse IP twice weekly, Day 8
  Percent decrease in tumour volume relative to control: 50%
[2]; 0.1 Microg/mouse IP twice weekly, Day 12
  Percent decrease in tumour volume relative to control: 18%
[2]; 0.1 Microg/mouse IP twice weekly, Day 19
  Percent decrease in tumour volume relative to control: 45%
[2]; 0.1 Microg/mouse IP twice weekly
  Days of life expectancy: 42 to 76 days
[2]; 1 Microg/mouse IP twice weekly, Day 8
  Percent decrease in tumour volume relative to control: 50%
[2]; 1 Microg/mouse IP twice weekly, Day 12
  Percent decrease in tumour volume relative to control: 26%
[2]; 1 Microg/mouse IP twice weekly, Day 19
  Percent decrease in tumour volume relative to control: 49%
[2]; 1 Microg/mouse IP twice weekly
  Days of life expectancy: 47 to 76 days
[2]; 10 Microg/mouse IP twice weekly, Day 8
  Percent decrease in tumour volume relative to control: 50%
[2]; 10 Microg/mouse IP twice weekly, Day 12
  Percent decrease in tumour volume relative to control: 25%
[2]; 10 Microg/mouse IP twice weekly, Day 19
  Percent decrease in tumour volume relative to control: 49%
[2]; 10 Microg/mouse IP twice weekly
  Days of life expectancy: 48 to 76 days
[2]; slower growing transplanted cervical cancer
  change in life expectancy: no significant increase (or decrease) in life expectancy was detected
[3]; IP injection 1 microgram per mouse
  number of antibody forming cells per one million nucleated spleen cells, re-based relative to 100 for control: 317
[3]; IP injection 10 micrograms per mouse
  number of antibody forming cells per one million nucleated spleen cells, re-based relative to 100 for control: 267
